Measured values reported in US8969395B2, “Triterpenoid derivatives useful as antiproliferative agents” (Universidade de Coimbra, priority 2009, dated 2015).

Experiments:
Type in all cases: cell-based
[1] = test system: HepG2 (human hepatocellular carcinoma); assay: Cytotoxic activity, MTT assay, HepG2; settings: 72 h, mean ±SD
Protocol: (§1) The cytotoxic of compounds of formulas (I) and (II) 14-50 was assessed towards human cancer (HepG2, HeLa and Jurkat) cell lines (Table 3 below). Compounds presented on Table 4 were also tested against a non-tumoral liver cell line (Chang liver). The cell viability of HeLa, HepG2 and Chang liver cells was determined by the MTT assay. Briefly, exponentially growing cells were plated in 96-well plates at a density of 1×10^3, 8×10^3 and 5×10^3 cells/well respectively and incubated for 24 h before treatment. The grown medium was replaced with one contained the tested compounds dissolved in DMSO (final DMSO concentration <0.1%) at different concentrations, in triplicate wells, and cells were incubated for 72 h. After incubation with the compounds, the medium was removed and MTT solution (0.5 mg/ml, 100 μl) was added to each well and the plates were incubated again for 1 h. DMSO (100 μl) was then added to dissolve the formazan crystals and the plates were immediately read at 550 nm on an ELISA plate reader (Tecan Sunrise MR20-301, TECAN, Austria). For the Jurkat cells, the cell viability was determined by the XTT assay. Briefly, exponentially growing cells were plated in 96-well plates at a density of 5.5×10^3 cells/well, treated with different concentrations of compounds in triplicate and incubated for 72 h. After incubation with the compounds the XTT labeling mixture (100 μl) were added to each of the wells and after a 4 h incubation period the plates were read at 450 nm on an ELISA plate reader. […] Known for its cytotoxic activity, betulinic acid 2 was used as a positive control in this experimentation. […] All the IC50 results represent an average of a minimum of three experiments and were expressed as means±standard deviation (SD).

Jurkat (human leukemia) = assay: Cytotoxic activity, XTT assay, Jurkat; settings: 72 h, mean ±SD
Protocol: as §1

[2] = test system: HeLa (human cervical adenocarcinoma); assay: Cytotoxic activity, MTT assay, HeLa; settings: 72 h, mean ±SD
Protocol: The cytotoxic of compounds of formulas (I) and (II) 14-50 was assessed towards human cancer (HepG2, HeLa and Jurkat) cell lines (Table 3 below). Compounds presented on Table 4 were also tested against a non-tumoral liver cell line (Chang liver). The cell viability of HeLa, HepG2 and Chang liver cells was determined by the MTT assay. Briefly, exponentially growing cells were plated in 96-well plates at a density of 1×10^3, 8×10^3 and 5×10^3 cells/well respectively and incubated for 24 h before treatment. The grown medium was replaced with one contained the tested compounds dissolved in DMSO (final DMSO concentration <0.1%) at different concentrations, in triplicate wells, and cells were incubated for 72 h. After incubation with the compounds, the medium was removed and MTT solution (0.5 mg/ml, 100 μl) was added to each well and the plates were incubated again for 1 h. DMSO (100 μl) was then added to dissolve the formazan crystals and the plates were immediately read at 550 nm on an ELISA plate reader (Tecan Sunrise MR20-301, TECAN, Austria). For the Jurkat cells, the cell viability was determined by the XTT assay. Briefly, exponentially growing cells were plated in 96-well plates at a density of 5.5×10^3 cells/well, treated with different concentrations of compounds in triplicate and incubated for 72 h. After incubation with the compounds the XTT labeling mixture (100 μl) were added to each of the wells and after a 4 h incubation period the plates were read at 450 nm on an ELISA plate reader. […] Known for its cytotoxic activity, betulinic acid 2 was used as a positive control in this experimentation.

[3] = test system: HT-29 (human colon adenocarcinoma); assay: Cytotoxic activity, HT-29; settings: mean ±SD
Protocol: Compounds presented in Table 6 were also tested in the following cell lines: PC-3 (human prostate adenocarcinoma), LNCaP (human prostate adenocarcinoma), LAPC4 (human prostate adenocarcinoma) and HT-29 (human colon adenocarcinoma).

SMILES | IC50 [1] | IC50 (Jurkat (human leukemia)) | IC50 [2] | IC50 [3]
C=C(C)[C@@H]1CC[C@]2(C(=O)n3ccnc3C)CC[C@]3(C)[C@H](CC[C@@H]4[C@@]5(C)C=CC(=O)C(C)(C)[C@@H]5CC[C@]43C)[C@@H]12 [Compound 47, 28-(2′-methyl-1H-imidazol-1-yl)-lup-1,20(29)-dien-3,28-dione] | 12.7 ± 1.2 µM | 9.4 ± 0.8 µM | 6.4 ± 0.8 µM | 5.9 ± 0.3 µM
C=C(COC)[C@@H]1CC[C@]2(COC(=O)n3ccnc3C)CC[C@]3(C)[C@H](CC[C@@H]4[C@@]5(C)CC[C@H](O)C(C)(C)[C@@H]5CC[C@]43C)[C@@H]12 [Compound 36, 3β-hydroxy-30-methoxylup-20(29)-en-28-yl-2′-methyl-1H-imidazole-1-carboxylate] | 14.4 ± 1.3 µM | 24.8 ± 4.7 µM | 8.9 ± 2.1 µM | 10.4 ± 1.6 µM
C=C(C)[C@@H]1CC[C@]2(COC(=O)n3ccnc3C)CC[C@]3(C)[C@H](CC[C@@H]4[C@@]5(C)CC[C@H](O)C(C)(C)[C@@H]5CC[C@]43C)[C@@H]12 [Compound 15, 3β-hydroxy-lup-20(29)-en-28-yl-2′-methyl-1H-imidazole-1-carboxylate] | 8.1 ± 0.4 µM | 15.8 ± 2.4 µM | 11 ± 1.7 µM | 16.2 ± 2.1 µM
C=C(C)[C@@H]1CC[C@]2(C(=O)OC)CC[C@]3(C)[C@H](CC[C@@H]4[C@@]5(C)CC[C@H](OC(=O)n6ccnc6C)C(C)(C)[C@@H]5CC[C@]43C)[C@@H]12 [Compound 34, Methyl 3β-(2′-methyl-1H-imidazole-1-carbonyloxy)-lup-20(29)-en-28-oate] | 13.4 ± 1.7 µM | 16.4 ± 2.4 µM | 13.4 ± 1.7 µM | 12.9 ± 0.5 µM
C=C(C)[C@@H]1CC[C@]2(C(=O)O)CC[C@]3(C)[C@H](CC[C@@H]4[C@@]5(C)C=C(OC(=O)n6ccnc6C)C(=O)C(C)(C)[C@@H]5CC[C@]43C)[C@@H]12 [Compound 50, 2-(2′-methyl-1H-imidazole-1-carbonyloxy)-3-oxolup-1,20(29)-dien-28-oic acid] | 6.8 ± 1.5 µM | 12.5 ± 1.2 µM | 10.6 ± 0.7 µM | 9 ± 1.7 µM
